Molecular target: T1, human GluR4B receptor (Homo sapiens, UniProt P48058)
T1 construct: expressed in transfected cells
Assay: Potentiation of agonist-induced excitability of human GluR4B expressed in HEK 293 cells
Type: cell-based
Details: human GluR4B receptor expressed in HEK 293 cells
Excerpt: The ability of compounds of formula I to potentiate glutamate receptor-mediated response may be determined using fluorescent calcium indicator dyes (Molecular Probes, Eugene, Oreg., Fluo-3) and by measuring glutamate-evoked efflux of calcium into GluR4 transfected HEK293 cells, as described in more detail below.
In one test, 96 well plates containing confluent monolayers of HEK cells stably expressing human GluR4B (obtained as described in European Patent Application Publication Number EP-A1-583917) are prepared. The tissue culture medium in the wells is then discarded, and the wells are each washed once with 200 μl of buffer (glucose, 10 mM, sodium chloride, 138 mM, magnesium chloride, 1 mM, potassium chloride, 5 mM, calcium chloride, 5 mM, N-[2-hydroxyethyl]-piperazine-N-[2-ethanesulfonic acid], 10 mM, to pH 7.1 to 7.3). […]
Each test is then performed as follows. […] A second fluorescent reading is taken after 5 minutes incubation. 15 μl of 400 μM glutamate solution is then added to each well (final glutamate concentration 100 μM), and a third reading is taken. The activities of test compounds and cyclothiazide solutions are determined by subtracting the second from the third reading (fluorescence due to addition of glutamate in the presence or absence of test compound or cyclothiazide) and are expressed relative to enhance fluorescence produced by 100 μM cyclothiazide.

T1 sequence (P48058 21-902): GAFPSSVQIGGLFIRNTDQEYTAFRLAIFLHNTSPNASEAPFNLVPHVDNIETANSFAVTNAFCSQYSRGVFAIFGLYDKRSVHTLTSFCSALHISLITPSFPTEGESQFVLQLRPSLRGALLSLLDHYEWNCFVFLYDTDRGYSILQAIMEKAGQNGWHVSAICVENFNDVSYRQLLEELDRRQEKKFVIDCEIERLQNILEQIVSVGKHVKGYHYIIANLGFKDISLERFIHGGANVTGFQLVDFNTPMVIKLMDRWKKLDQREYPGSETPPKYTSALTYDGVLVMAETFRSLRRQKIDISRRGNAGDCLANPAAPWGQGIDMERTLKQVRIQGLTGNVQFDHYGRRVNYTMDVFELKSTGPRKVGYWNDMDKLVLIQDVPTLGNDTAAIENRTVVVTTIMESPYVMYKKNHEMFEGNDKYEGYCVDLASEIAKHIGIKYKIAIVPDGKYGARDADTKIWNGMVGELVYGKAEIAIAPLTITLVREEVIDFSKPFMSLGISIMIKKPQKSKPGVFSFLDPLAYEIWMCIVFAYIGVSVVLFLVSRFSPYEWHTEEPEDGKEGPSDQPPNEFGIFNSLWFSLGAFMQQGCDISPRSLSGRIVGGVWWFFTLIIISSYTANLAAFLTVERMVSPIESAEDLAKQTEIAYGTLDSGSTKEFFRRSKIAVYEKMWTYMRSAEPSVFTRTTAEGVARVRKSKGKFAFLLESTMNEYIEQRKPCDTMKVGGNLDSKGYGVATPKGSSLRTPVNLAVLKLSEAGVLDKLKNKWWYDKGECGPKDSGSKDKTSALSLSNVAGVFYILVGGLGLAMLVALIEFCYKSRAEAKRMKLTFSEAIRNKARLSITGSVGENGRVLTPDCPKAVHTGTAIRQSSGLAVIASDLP

NS(=O)(=O)c1cc2c(cc1Cl)NC(C1CC3C=CC1C3)NS2(=O)=O (stereo not shown) [cyclothiazide]
potentiation of agonist-induced excitability: potentiate
